Literature values in PubChem BioAssay AID1259409 (Chemical Carcinogenesis Research Information System (CCRIS), 2018).

System: rodent chemically induced tumor inhibition, incidence and multiplicity
Experiment: CCRIS tumor inhibitor studies
Conditions: Dose [Inhibitor]: 0, Species: MOUSE; for outcome: Target Tissue: Type of Lesion: URINARY BLADDER: SQUAMOUS CELL CARCINOMA

| SMILES | outcome (Carcinogen: N-BUTYL-N-(4-HYDROXYBUTYL)NITROSAMINE, 3817-11-6, 0.1 UG/KG ONCE/WK FOR 17 WK BY INTRAVESICULAR INSTILLATION UNDER ANESTHESIA, BEGINNING 1 WK AFTER INITIATION PERIOD (, Route [Inhibitor]: INTRAVESICULAR, Strain/Sex: C57BL6/FEMALE, Dose [Carcinogen]: 0.05% IN DRINKING WATER FOR 8 WK) | outcome (Carcinogen: N-BUTYL-N-(4-HYDROXYBUTYL)NITROSAMINE, 3817-11-6, 10 UG/KG ONCE/WK FOR 17 WK BY INTRAVESICULAR INSTILLATION UNDER ANESTHESIA, BEGINNING 1 WK AFTER INITIATION PERIOD (S, Route [Inhibitor]: INTRAVESICULAR, Strain/Sex: C57BL6/FEMALE, Dose [Carcinogen]: 0.05% IN DRINKING WATER FOR 8 WK) | tumour outcome (control, treated, inhibition, significance) (Carcinogen: N-BUTYL-N-(4-HYDROXYBUTYL)NITROSAMINE, 3817-11-6, 10 UG/KG ONCE/WK FOR 17 WK BY INTRAVESICULAR INSTILLATION UNDER ANESTHESIA, BEGINNING 1 WK AFTER INITIATION PERIOD (S, Route [Inhibitor]: INTRAVESICULAR, Strain/Sex: C57BL6/FEMALE, Target Tissue: Type of Lesion: URINARY BLADDER: TRANSITIONAL CELL CARCINOMA, Dose [Carcinogen]: 0.05% IN DRINKING WATER FOR 8 WK) | tumour outcome (control, treated, inhibition, significance) (Carcinogen: 4-NITROQUINOLINE-1-OXIDE, 56-57-5, 0.05% IN DRINKING WATER AD LIBITUM (STUDY DURATION: 30 WK), Route [Inhibitor]: ORAL, Strain/Sex: DDY/MALE, Target Tissue: Type of Lesion: LUNG: TUMOR, Dose [Carcinogen]: 10 MG/KG BW IN OLIVE OIL/CHOLESTEROL (20:1) ONCE, Promoter: GLYCEROL, 56-81-5) | tumour outcome (control, treated, inhibition, significance) (Carcinogen: 4-NITROQUINOLINE-1-OXIDE, 56-57-5, 0.05% IN DRINKING WATER BEGINNING 5 WK POST CARCINOGEN TREATMENT AND CONTINUING FOR 25 WK (STUDY DURATION: 30 WK), Route [Inhibitor]: ORAL, Strain/Sex: DDY/MALE, Target Tissue: Type of Lesion: LUNG: TUMORS, Dose [Carcinogen]: 10 MG/KG BW IN OLIVE OIL AND CHOLESTEROL (20:1) ONCE, Promoter: NONE USED) | tumour outcome (control, treated, inhibition, significance) (Carcinogen: 7,12-DIMETHYLBENZ[A]ANTHRACENE, 57-97-6, 0.05% IN DRINKING WATER AD LIBITUM FOR 30 WK BEGINNING 1 WK POST CARCINOGEN DOSE (STUDY DURATION: 31 WK), Route [Inhibitor]: ORAL, Strain/Sex: ICR/FEMALE, Target Tissue: Type of Lesion: SKIN: TUMOR, Dose [Carcinogen]: 100 UG ONCE, Promoter: 12-O-TETRADECANOYLPHORBOL-13-ACETATE, 16561-29-8) | tumour outcome (control, treated, inhibition, significance) (Carcinogen: 7,12-DIMETHYLBENZ[A]ANTHRACENE, 57-97-6, 200 NMOL IN 200 µL ACETONE 2/WK BEGINNING 1 WK POST CARCINOGEN DOSE APPLIED SIMULTANEOUSLY WITH PROMOTER FOR 20 WK (S, Route [Inhibitor]: DERMAL, Strain/Sex: ICR/?, Target Tissue: Type of Lesion: SKIN: PAPILLOMA, Dose [Carcinogen]: 100 UG ONCE, Promoter: 12-O-TETRADECANOYLPHORBOL-13-ACETATE, 16561-29-8) | tumour outcome (control, treated, inhibition, significance) (Carcinogen: 7,12-DIMETHYLBENZ[A]ANTHRACENE, 57-97-6, 200 NMOL IN 200 µL ACETONE 2/WK FOR 40 WK APPLIED SIMULTANEOUSLY WITH PROMOTER BEGINNING 1 WK POST CARCINOGEN DOSE (S, Route [Inhibitor]: DERMAL, Strain/Sex: ICR/FEMALE, Target Tissue: Type of Lesion: SKIN: TUMOR, Dose [Carcinogen]: 100 UG ONCE, Promoter: 12-O-TETRADECANOYLPHORBOL-13-ACETATE, 16561-29-8) | tumour outcome (control, treated, inhibition, significance) (Carcinogen: 7,12-DIMETHYLBENZ[A]ANTHRACENE, 57-97-6, 400 NMOL IN 200 µL ACETONE 2/WK BEGINNING 1 WK POST CARCINOGEN DOSE APPLIED SIMULTANEOUSLY WITH PROMOTER FOR 20 WK (S, Route [Inhibitor]: DERMAL, Strain/Sex: ICR/?, Target Tissue: Type of Lesion: SKIN: PAPILLOMA, Dose [Carcinogen]: 100 UG ONCE, Promoter: 12-O-TETRADECANOYLPHORBOL-13-ACETATE, 16561-29-8) | tumour outcome (control, treated, inhibition, significance) (Carcinogen: NONE USED, 0.005% IN DRINKING WATER AD LIBITUM FOR 40 WK (STUDY DURATION: 40 WK), Route [Inhibitor]: ORAL, Strain/Sex: C3H/HE/MALE, Target Tissue: Type of Lesion: LIVER: TUMOR, Promoter: NONE USED) | tumour outcome (control, treated, inhibition, significance) (Carcinogen: NONE USED, 0.005% IN DRINKING WATER FOR 40 WK (STUDY DURATION: 40 WK), Route [Inhibitor]: ORAL, Strain/Sex: C3H/HE/MALE, Target Tissue: Type of Lesion: LIVER: TUMORS, Promoter: NONE USED) | tumour outcome (control, treated, inhibition, significance) (Carcinogen: NONE USED, 0.05% IN DRINKING WATER AD LIBITUM FOR 40 WK (STUDY DURATION: 40 WK), Route [Inhibitor]: ORAL, Strain/Sex: C3H/HE/MALE, Target Tissue: Type of Lesion: LIVER: TUMOR, Promoter: NONE USED) | tumour outcome (control, treated, inhibition, significance) (Carcinogen: NONE USED, 0.05% IN DRINKING WATER FOR 40 WK (STUDY DURATION: 40 WK), Route [Inhibitor]: ORAL, Strain/Sex: C3H/HE/MALE, Target Tissue: Type of Lesion: LIVER: TUMORS, Promoter: NONE USED) |
| --- | --- | --- | --- | --- | --- | --- | --- | --- | --- | --- | --- | --- | --- |
| CCCCCCCCCCCCCCCCCCCCCCCCCC(=O)N[C@@H](CO[C@H]1O[C@H](CO)[C@H](O)[C@H](O)[C@H]1O)[C@H](O)[C@H](O)CCCCCCCCCCCCCC | 0/13 (0%), 0/13 (0%), not significant | 0/13 (0%), 2/11 (18.2%), not significant | 1/13 (7.7%), 3/11 (27.3%), -254%, not significant |  |  |  |  |  |  |  |  |  |  |
| CC1=CCCC(C)(C)[C@H]1/C=C/C(C)=C/C=C/C(C)=C/C=C/C=C(C)/C=C/C=C(C)/C=C/C1=C(C)CCCC1(C)C |  |  |  | 94%, 73%, 22%, not significant | 94%, 73%, 22%, not calculated | 13/16 (81%), 7/16 (44%), 46%, not significant | 69%, 25%, 64%, not calculated | 10/15 (67%), 5/15 (33%), 51%, p<0.01 | 69%, 13%, 81%, not calculated | 100%, 100%, 0%, not significant | 16/16 (100%), 15/15 (100%), 0%, not significant | 100%, 94%, 6%, not significant | 16/16 (100%), 16/17 (94%), 6%, not calculated |
